According to patent publication US20260125421A1, “ANTIVIRAL COMPOUNDS” (Hoffmann-La Roche Inc., priority 2022, published 2026):

Columns and labels:
Assay in all cases: biochemical
[1] = target: T1, SARS-CoV-2 3CL^pro (Severe acute respiratory syndrome coronavirus 2, UniProt P0DTD1)
T1 construct: […]; made in house; host or cells: Escherichia coli

[2] = target: T2, HCoV-229E 3CL^pro (Human coronavirus 229E, UniProt P0C6X1)
T2 construct: […]; made in house; host or cells: E. coli BL21 (DE3)

[3] = target: MERS-CoV 3CL^pro (Middle East respiratory syndrome-related coronavirus, UniProt K9N7C7)
Chain of MERS-CoV 3CL^pro (K9N7C7 3248-3553): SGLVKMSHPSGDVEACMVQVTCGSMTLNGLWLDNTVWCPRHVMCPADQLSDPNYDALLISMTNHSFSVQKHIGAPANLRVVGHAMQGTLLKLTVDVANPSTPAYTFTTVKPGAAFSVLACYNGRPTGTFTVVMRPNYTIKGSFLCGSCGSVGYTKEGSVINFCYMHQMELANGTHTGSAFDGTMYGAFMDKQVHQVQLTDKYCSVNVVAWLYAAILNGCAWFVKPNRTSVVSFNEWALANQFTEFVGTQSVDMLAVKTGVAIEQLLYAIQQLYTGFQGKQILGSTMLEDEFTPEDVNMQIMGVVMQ

[4] = target: SARS-CoV 3CL^pro (Severe acute respiratory syndrome coronavirus, UniProt P0C6X7)

T2 sequence (P0C6X1 2966-3267): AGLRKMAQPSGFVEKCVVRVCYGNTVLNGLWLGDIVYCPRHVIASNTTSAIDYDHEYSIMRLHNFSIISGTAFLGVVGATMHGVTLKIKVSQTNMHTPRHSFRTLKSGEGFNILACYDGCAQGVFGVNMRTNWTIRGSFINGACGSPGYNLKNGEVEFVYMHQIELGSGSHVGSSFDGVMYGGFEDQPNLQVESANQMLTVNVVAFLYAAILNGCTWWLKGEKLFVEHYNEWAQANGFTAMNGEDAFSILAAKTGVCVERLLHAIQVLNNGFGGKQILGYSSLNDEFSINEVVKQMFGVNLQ

`C[C@H]1C[C@H](CN(NC(=O)[C@@H]2[C@@H]3[C@H](CN2C(=O)[C@@H](NC(=O)[C@@H]2CC2(F)F)C(C)(C)C)C3(C)C)C(=O)[C@H](F)Cl)C(=O)N1` [Example 31, (1S)-N-[(1S)-1-[(1R,2S,5S)-2-[[[(2R)-2-chloro-2-fluoro-acetyl]-[[(3R,5S)-5-methyl-2-oxo-pyrrolidin-3-yl]methyl]amino]carbamoyl]-6,6-dimethyl-3-azabicyclo[3.1.0]hexane-3-carbonyl]-2,2-dimethyl-propyl]-2,2-difluoro-cyclopropanecarboxamide] showed an IC50 [1] of 25 nM, an IC50 [2] of 116 nM and an IC50 [3] of 555 nM. The IC50 [4] was 53 nM.

`C[C@@H]1C[C@H](CN(NC(=O)[C@@H]2[C@@H]3[C@H](CN2C(=O)[C@@H](NC(=O)[C@@H]2CC2(F)F)C(C)(C)C)C3(C)C)C(=O)[C@@H](F)Cl)C(=O)N1` [Example 32, (1S)-N-[(1S)-1-[(1R,2S,5S)-2-[[[(2S)-2-chloro-2-fluoro-acetyl]-[[(3R,5R)-5-methyl-2-oxo-pyrrolidin-3-yl]methyl]amino]carbamoyl]-6,6-dimethyl-3-azabicyclo[3.1.0]hexane-3-carbonyl]-2,2-dimethyl-propyl]-2,2-difluoro-cyclopropanecarboxamide] gave an IC50 [1] of 65 nM, an IC50 [2] of 70 nM and an IC50 [3] of 200 nM. It also gave an IC50 [4] of 116 nM.

For `C[C@H]1C[C@@H](CN(NC(=O)[C@@H]2[C@@H]3[C@H](CN2C(=O)[C@@H](NC(=O)[C@@H]2CC2(F)F)C(C)(C)C)C3(C)C)C(=O)[C@H](F)Cl)C(=O)N1` [Example 33, (1S)-N-[(1S)-1-[(1R,2S,5S)-2-[[[(2R)-2-chloro-2-fluoro-acetyl]-[[(3S,5S)-5-methyl-2-oxo-pyrrolidin-3-yl]methyl]amino]carbamoyl]-6,6-dimethyl-3-azabicyclo[3.1.0]hexane-3-carbonyl]-2,2-dimethyl-propyl]-2,2-difluoro-cyclopropanecarboxamide], the IC50 [1] was 6 nM, the IC50 [2] was 26 nM and the IC50 [3] was 72 nM. For the same compound, the IC50 [4] was 13 nM.

In the case of `C[C@@H]1C[C@@H](CN(NC(=O)[C@@H]2[C@@H]3[C@H](CN2C(=O)[C@@H](NC(=O)[C@@H]2CC2(F)F)C(C)(C)C)C3(C)C)C(=O)[C@@H](F)Cl)C(=O)N1` [Example 34, (1S)-N-[(1S)-1-[(1R,2S,5S)-2-[[[(2S)-2-chloro-2-fluoro-acetyl]-[[(3S,5R)-5-methyl-2-oxo-pyrrolidin-3-yl]methyl]amino]carbamoyl]-6,6-dimethyl-3-azabicyclo[3.1.0]hexane-3-carbonyl]-2,2-dimethyl-propyl]-2,2-difluoro-cyclopropanecarboxamide], the IC50 [1] is reported as 8 nM, the IC50 [2] is reported as 37 nM and the IC50 [3] is reported as 80 nM. The IC50 [4] was 14 nM.

`CC(C)(C)[C@H](NC(=O)[C@@H]1CC1(F)F)C(=O)N1C[C@@H]2CCC[C@@H]2[C@H]1C(=O)NN(C[C@H]1C(=O)N[C@@H]2C[C@@H]21)C(=O)[C@H](F)Cl` [Example 35, (1S)-N-[(1S)-1-[(3S,3aS,6aR)-3-[[[(2R)-2-chloro-2-fluoro-acetyl]-[[(1R,4S,5R)-3-oxo-2-azabicyclo[3.1.0]hexan-4-yl]methyl]amino]carbamoyl]-3,3a,4,5,6,6a-hexahydro-1H-cyclopenta[c]pyrrole-2-carbonyl]-2,2-dimethyl-propyl]-2,2-difluoro-cyclopropanecarboxamide] was tested, and the IC50 [1] was 10 nM, the IC50 [2] was 41 nM and the IC50 [3] was 117 nM. For the same compound, the IC50 [4] was 7 nM.

`CC(C)(C)[C@H](NC(=O)[C@@H]1CC1(F)F)C(=O)N1C[C@@H]2CCC[C@@H]2[C@H]1C(=O)NN(C[C@H]1C(=O)N[C@H]2C[C@H]21)C(=O)[C@H](F)Cl` [Example 36, (1S)-N-[(1S)-1-[(3S,3aS,6aR)-3-[[[(2R)-2-chloro-2-fluoro-acetyl]-[[(1S,4S,5S)-3-oxo-2-azabicyclo[3.1.0]hexan-4-yl]methyl]amino]carbamoyl]-3,3a,4,5,6,6a-hexahydro-1H-cyclopenta[c]pyrrole-2-carbonyl]-2,2-dimethyl-propyl]-2,2-difluoro-cyclopropanecarboxamide] was tested, and the IC50 [1] was 13 nM, the IC50 [2] was 54 nM and the IC50 [3] was 174 nM. For the same compound, the IC50 [4] was 14 nM.

Compound `CC(C)(C)[C@H](NC(=O)[C@@H]1CC1(F)F)C(=O)N1C[C@@H]2CCC[C@@H]2[C@H]1C(=O)NN(C[C@H]1C(=O)N[C@@H]2C[C@@H]21)C(=O)[C@@H](F)Cl` [Example 37, (1S)-N-[(1S)-1-[(3S,3aS,6aR)-3-[[[(2S)-2-chloro-2-fluoro-acetyl]-[[(1R,4S,5R)-3-oxo-2-azabicyclo[3.1.0]hexan-4-yl]methyl]amino]carbamoyl]-3,3a,4,5,6,6a-hexahydro-1H-cyclopenta[c]pyrrole-2-carbonyl]-2,2-dimethyl-propyl]-2,2-difluoro-cyclopropanecarboxamide] has an IC50 [1] of 17 nM, an IC50 [2] of 191 nM and an IC50 [3] of 320 nM. The IC50 [4] was 21 nM.

Compound `CC(C)(C)[C@H](NC(=O)[C@@H]1CC1(F)F)C(=O)N1C[C@@H]2CCC[C@@H]2[C@H]1C(=O)NN(C[C@@H]1C(=O)N[C@@H]2C[C@H]12)C(=O)[C@H](F)Cl` [Example 38, (1S)-N-[(1S)-1-[(3S,3aS,6aR)-3-[[[(2R)-2-chloro-2-fluoro-acetyl]-[[(1R,4R,5R)-3-oxo-2-azabicyclo[3.1.0]hexan-4-yl]methyl]amino]carbamoyl]-3,3a,4,5,6,6a-hexahydro-1H-cyclopenta[c]pyrrole-2-carbonyl]-2,2-dimethyl-propyl]-2,2-difluoro-cyclopropanecarboxamide] has an IC50 [1] of 27 nM, an IC50 [2] of 134 nM and an IC50 [3] of 398 nM. The IC50 [4] was 54 nM.

`CC(C)(C)[C@H](NC(=O)[C@@H]1CC1(F)F)C(=O)N1C[C@@H]2CCC[C@@H]2[C@H]1C(=O)NN(C[C@H]1C(=O)N[C@H]2C[C@H]21)C(=O)[C@@H](F)Cl` [Example 39, (1S)-N-[(1S)-1-[(3S,3aS,6aR)-3-[[[(2S)-2-chloro-2-fluoro-acetyl]-[[(1S,4S,5S)-3-oxo-2-azabicyclo[3.1.0]hexan-4-yl]methyl]amino]carbamoyl]-3,3a,4,5,6,6a-hexahydro-1H-cyclopenta[c]pyrrole-2-carbonyl]-2,2-dimethyl-propyl]-2,2-difluoro-cyclopropanecarboxamide] gave an IC50 [1] of 29 nM, an IC50 [2] of 207 nM and an IC50 [3] of 289 nM. It also gave an IC50 [4] of 34 nM.

With `CC(C)(C)[C@H](NC(=O)[C@@H]1CC1(F)F)C(=O)N1C[C@@H]2CCC[C@@H]2[C@H]1C(=O)NN(C[C@@H]1C(=O)N[C@@H]2C[C@H]12)C(=O)[C@@H](F)Cl` [Example 40, (1S)-N-[(1S)-1-[(3S,3aS,6aR)-3-[[[(2S)-2-chloro-2-fluoro-acetyl]-[[(1R,4R,5R)-3-oxo-2-azabicyclo[3.1.0]hexan-4-yl]methyl]amino]carbamoyl]-3,3a,4,5,6,6a-hexahydro-1H-cyclopenta[c]pyrrole-2-carbonyl]-2,2-dimethyl-propyl]-2,2-difluoro-cyclopropanecarboxamide] the IC50 [1] was 64 nM, the IC50 [2] was 257 nM and the IC50 [3] was 538 nM. It also gave an IC50 [4] of 122 nM.
